A short description of the series: gradient 5% acetonitrile 3 min, to 50% in 2 min, to 85% in 15 min, held 3 min, 100 µL/min. As to conditions: column: Zorbax Extend-C18 2.1 x 50 mm; eluents: water / acetonitrile, 0.1% formic acid. An outline of the steps:
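Retention times of pure standards were taken from adduct peaks that were selected by computer and manually inspected. Over 3 months, mixtures of ~100 molecules were run by HPLC–quadrupole time-of-flight mass spectrometry in positive and negative ionization mode. The Zorbax Extend-C18 column (2.1 × 50 mm, 1.8 μm) ran at 100 μL/min in water and acetonitrile, each containing 0.1% formic acid, with 40 μL dead volume and 900 μL dwell volume.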
Consider `COc1cc(C=CC(=O)CC(=O)C=Cc2ccc(O)c(OC)c2)ccc1O`, for which the RP-LC retention time was 891 s.

The molecule `O=C(Cc1cccs1)Nc1ccc(OCc2nnc(-c3ccccc3)o2)cc1` returned an RP-LC retention time of 879 s.

Molecule `O=C(NCC(c1cccnc1)c1c[nH]c2ccccc12)Nc1ccc(Br)cc1` (centres undefined) displayed an RP-LC retention time of 724 s.

`CCOC(=O)c1[nH]c(C)c(CCC(=O)N2CCCC(C(=O)NC3CCCCCC3)C2)c1C` (centres undefined) gave an RP-LC retention time of 868 s.

Turning to `Cc1ccc(Sc2nccnc2N2CCCC(C(=O)Nc3ccc(F)cc3C)C2)cc1` (centres undefined), the RP-LC retention time turned out to be 1140 s.

`COCCNC(=O)C(=O)NCC1CCN(C(=O)c2ccccc2F)CC1` registered an RP-LC retention time of 609 s.

`CC(=O)N(Cc1nn(C)c2c1CN(S(=O)(=O)c1cccc(F)c1)CC2)c1ccccc1` came in with an RP-LC retention time of 796 s.

In the case of `CNC(=O)C1CCCN(S(=O)(=O)c2ccc(OC)c(OC)c2)C1` (centres undefined), the RP-LC retention time was determined as 657 s.

As to `CCOc1ccc(-n2c(=O)c3sccc3n(Cc3nc(-c4ccccc4)no3)c2=O)cc1`, the RP-LC retention time stood at 1010 s.

`Cn1nccc1-c1cccc(-c2noc(-c3cc(Cl)ccc3F)n2)c1` had an RP-LC retention time of 1210 s.

The molecule `COC(=O)c1ccc2c(=O)n(-c3cccc(Cl)c3)c(N3CCN(c4ccccn4)CC3)nc2c1` showed an RP-LC retention time of 744 s.

On to `Cc1cccc(Oc2nccnc2N2CCC(C(=O)NC(C)c3ccc(C)c(C)c3)CC2)c1` (centres undefined), for which the RP-LC retention time was determined as 1130 s.

Molecule `O=C(Cc1noc2ccccc12)NCc1cc(-c2ccc(F)cc2F)on1` displayed an RP-LC retention time of 818 s.

Molecule `COc1ccc(NC(=O)C2=Cc3cc(Br)ccc3OC2)c(OC)c1` registered an RP-LC retention time of 1120 s.

Regarding `CC(C)CNC(=O)c1cc2c(s1)N(CC1CC1)CCCC2`, the RP-LC retention time is 1040 s.

In turn, `Cc1ccccc1NC(=O)N1C[C@@H]2C[C@H](NC(=O)c3cccs3)[C@H]1C2` gave an RP-LC retention time of 706 s.

For the molecule `CCOc1ccccc1NC(=O)C(=O)NCCc1ccsc1`, the RP-LC retention time turned out to be 1020 s.

For the molecule `COc1ccc2c(c1)c(CN1CCC(C(=O)NCCN3CCN(C)CC3)CC1)cn2C`, the RP-LC retention time came out at 564 s.

Molecule `O=c1ccc(-c2ccc(F)cc2)nn1CCc1nc(-c2ccncc2)no1` yielded an RP-LC retention time of 758 s.

`Cc1ccc(NC(=O)Cn2nc(N(C)C)c3ccccc3c2=O)cc1Cl` returned an RP-LC retention time of 958 s.

The molecule `Cc1ccc(N(C)C(=O)C2CCN(S(=O)(=O)c3ccc(-c4noc(C5CC5)n4)cc3)CC2)cc1` gave an RP-LC retention time of 1100 s.

The molecule `Cc1[nH]c(C(=O)N2CCC(CC(=O)N3CCCC3)CC2)c(C)c1C(=O)OC(C)C` gave an RP-LC retention time of 735 s.

`CCOc1ccccc1NC(=O)Cn1c(CC)nc2c(c1=O)CN(Cc1ccccc1)CC2` came in with an RP-LC retention time of 687 s.

In turn, `CCc1nc(-c2csc(S(=O)(=O)N3CCCC(C(=O)Nc4ccccc4CC)C3)c2)no1` (centres undefined) displayed an RP-LC retention time of 1060 s.

`CSc1cccc(NC(=O)N2CCC(C)(C(=O)NCc3ccc(C)cc3)CC2)c1` returned an RP-LC retention time of 917 s.

In turn, `CCCc1noc(-c2ccnc(-n3cnc(C(=O)NC4CCCCCC4)c3)c2)n1` yielded an RP-LC retention time of 1060 s.

As for `COc1cccc(-c2cc(C(=O)N3CCCC3c3c(C)noc3C)on2)c1` (centres undefined), the RP-LC retention time is 872 s.

In turn, `CCS(=O)(=O)Nc1ccc(C2(C(=O)NCc3cccc(Cl)c3)CCC2)cc1` gave an RP-LC retention time of 876 s.

The molecule `COC(=O)CCNC(=O)C1c2ccccc2C(=O)N(c2ccccc2)C12CCCCC2` (centres undefined) registered an RP-LC retention time of 826 s.

As for `O=C(c1ccc(OCC2CCCN2C(=O)Cc2ccc(Cl)cc2)cc1)N1CCOCC1` (centres undefined), the RP-LC retention time turned out to be 811 s.

Take `CN[C@H](CNC(=O)N1CCC[C@@H]([C@@H](OCCNC(=O)OC)c2cccc(Cl)c2)C1)C[C@H]1CCCOC1`: the RP-LC retention time is 780 s.

Molecule `CCOc1ccc(NC(=O)Cn2c(C)cc(-c3nnc(C4CCC4)o3)c2C)cc1` registered an RP-LC retention time of 896 s.

Molecule `CCOC(=O)CNC(=O)NC12CC3CC(CC(C3)C1)C2` returned an RP-LC retention time of 802 s.

As to `COCCCNC(=O)CC1Sc2ncccc2N(C)C1=O` (centres undefined), the RP-LC retention time stood at 600 s.

The molecule `COc1ccc(NS(=O)(=O)c2cc3n(c2)CCN(C)C3=O)cc1` had an RP-LC retention time of 657 s.

`CSc1ccc(-c2nc3ccccn3c2Nc2ccccc2C)cc1` showed an RP-LC retention time of 794 s.

Regarding `CCn1nccc1C(=O)Nc1ccc(-c2nnc3n2CCCC3)cc1`, the RP-LC retention time is 1010 s.

In turn, `CC(CNC(=O)c1cc2sc(Cl)cc2n1C)c1ccccc1` (centres undefined) displayed an RP-LC retention time of 1110 s.

`CCCS(=O)(=O)N1CCCc2ccc(NC(=O)NC3CCCCC3)cc21` yielded an RP-LC retention time of 882 s.

With `CC(C)C(=O)Nc1ccc(C(=O)NCCNS(=O)(=O)c2ccc(F)c(Cl)c2)cc1`, the RP-LC retention time worked out at 720 s.

For `CCCNC(=O)Cc1c(C)nc2nc(-c3ccc(C(C)(C)C)cc3)nn2c1C`, the RP-LC retention time amounted to 920 s.

`CCCCNC(=O)Cn1c(=O)cc(-c2nc(C3CC3)no2)c2ccccc21` registered an RP-LC retention time of 874 s.

As to `CCCCN1C(=O)CC(C(=O)OCC)=C1C`, the RP-LC retention time was 892 s.

The molecule `O=C(C1CCN(c2cncnc2N2CCOCC2)CC1)N1CCC(Cc2ccccc2)CC1` gave an RP-LC retention time of 700 s.

`O=C(Cc1ccc(F)cc1)N1CCN(Cc2nc(C3CC3)cs2)CC1`: the RP-LC retention time was 610 s.

Consider `O=C(O)c1cn2ccnc(-c3ccc(F)cc3)c2n1`, for which the RP-LC retention time is 688 s.

`CCC1CCCCN1CCCNC(=O)c1ccnc(-c2cccs2)c1` (centres undefined) gave an RP-LC retention time of 627 s.

`Cc1ccc(C)c(NC(=O)Cn2ncc3c(c2=O)N(CC2CC2)C(=O)CS3)c1`: the RP-LC retention time turned out to be 812 s.

In the case of `CC(=O)N(C)CCc1noc(C2CN(C(=O)Cc3cccs3)C2)n1`, the RP-LC retention time worked out at 627 s.

Molecule `CC1CCN(S(=O)(=O)c2ccc(-c3nnc(C(=O)NCc4ccc5c(c4)OCO5)o3)cc2)CC1` showed an RP-LC retention time of 1010 s.

In the case of `O=C1C(N2CCN(S(=O)(=O)c3cc(F)cc(F)c3)CC2)CCN1Cc1ccccn1` (centres undefined), the RP-LC retention time was 601 s.

In the case of `CCc1noc(NC(C)=O)c1-c1ccc(C)c(S(=O)(=O)Nc2ccc(C)cc2)c1`, the RP-LC retention time was determined as 830 s.

In turn, `CC(C)(C)C1=NN=C2c3ccccc3C(=O)C21` (centres undefined) returned an RP-LC retention time of 852 s.

Consider `CCc1nc2ccccc2c(=O)n1Cc1noc(-c2cc(OC)c(OC)c(OC)c2)n1`, for which the RP-LC retention time came out at 919 s.

Turning to `Cn1ccc2cc(S(=O)(=O)N3CCC(C(=O)N4CCN(c5ncccn5)CC4)CC3)ccc21`, the RP-LC retention time turned out to be 821 s.

`COc1cc(OC)cc(C(=O)N2CCC3(CC2)N=C(c2ccc(Cl)cc2)NO3)c1`: the RP-LC retention time came out at 893 s.

`COc1ccc(C2(C(=O)NCCC3CCN(C(=O)Nc4ccccc4F)CC3)CC2)cc1` returned an RP-LC retention time of 837 s.

In turn, `COc1cc(NC(=O)C2c3ccccc3C(=O)N3CCc4ccccc4C23)cc(OC)c1OC` (centres undefined) yielded an RP-LC retention time of 776 s.

Regarding `COc1cccc(C2CC(c3cccs3)=NN2C(=O)C(OC)c2ccccc2)c1O` (centres undefined), the RP-LC retention time stood at 937 s.

Regarding `O=C(CCc1c(-c2ccc(F)cc2)nc2ccccn12)Nc1cccc(C(F)(F)F)c1`, the RP-LC retention time worked out at 752 s.

Take `CCOc1ccccc1NC(=O)N1CC(n2ccnc2)C1`: the RP-LC retention time worked out at 594 s.

In turn, `O=C(CSc1ccc(N2CCCC(C(=O)NC3CC3)C2)nn1)NCc1ccc(F)cc1` (centres undefined) displayed an RP-LC retention time of 622 s.

With `Cc1oc(-c2ccc(C(=O)NCCCN3CCOCC3)cc2)nc1CSc1ccccc1`, the RP-LC retention time stood at 685 s.

`COc1ccc(-c2noc(-c3nnn4c3COC(c3ccc(Cl)cc3)C4)n2)c(OC)c1` (centres undefined): the RP-LC retention time amounted to 1140 s.

`Cc1nc(Nc2ccccn2)sc1C(=O)N1CCSCC1` returned an RP-LC retention time of 703 s.

`Cc1cccc(-c2ccc(N3CCCC(C(=O)NC4CCCC4)C3)nn2)c1` (centres undefined) displayed an RP-LC retention time of 708 s.

`CCCn1c(C)cnc1C1CN(C(=O)c2cccs2)C1` showed an RP-LC retention time of 586 s.

Take `CCc1noc(-c2ccnc(-n3ncc(C(=O)NCC(C)C)c3C)c2)n1`: the RP-LC retention time is 931 s.

As to `O=C(Nc1nc(-c2ccc3ccccc3c2)cs1)c1ccc2c(c1)OCO2`, the RP-LC retention time was 1160 s.

As for `Cn1cc(-c2cc3n(n2)CCCN3C(=O)CCC(=O)N2CCN(c3ccccn3)CC2)c2ccccc21`, the RP-LC retention time was 621 s.

Molecule `O=C(NCc1ccc2c(c1)OCO2)c1ccc2c(c1)CC(=O)N2Cc1ccc(F)cc1` gave an RP-LC retention time of 847 s.

`O=c1nc(Oc2ccccc2)nc2ncccn12`: the RP-LC retention time was 688 s.

Molecule `COc1cc(OC)cc(-c2nc(-c3nnn(-c4ccccc4)c3C)no2)c1` showed an RP-LC retention time of 1070 s.

For `CCc1ccc(-c2cc(C(F)(F)F)on2)cc1S(=O)(=O)N1CCC(C)CC1`, the RP-LC retention time was determined as 1350 s.

Molecule `Cc1c(C(=O)OCC(=O)Nc2cccc(Cl)c2)nnn1-c1ccccc1` registered an RP-LC retention time of 946 s.

Turning to `COc1cccc(NC(=O)c2csc(-c3cn(C)c4ncccc34)n2)c1`, the RP-LC retention time is 978 s.

Consider `C=CCN1C(=O)COc2ccc(-c3csc(NC(=O)CC)n3)cc21`, for which the RP-LC retention time is 837 s.

`CC(C)c1ccc(OCC(=O)Nc2nc(-c3ccccc3)cs2)cc1` gave an RP-LC retention time of 1240 s.

Regarding `O=C(Cn1cnc2ccccc21)OCc1cc(-c2ccc3c(c2)OCO3)on1`, the RP-LC retention time was 639 s.

The record behind these values is the METLIN SMRT retention time set (Domingo-Almenara et al. 2019).
